Patent publication US20190307740A1, “COMPOSITIONS AND METHODS FOR TREATMENT RELATED TO FALL AND FALL FREQUENCY IN NEURODEGENERATIVE DISEASES” (Neurocea, LLC, priority 2016, published 2019)
Values joined by “and” are separate entries in the source; they are usually repeats but may differ in a detail not shown here. Identical values can stand only once.

Tests used:
[1] = test system: subjects with idiopathic PD with LIDs
Experimental: (§1) At the time the study was performed (2009), there was no FDA accepted instrument for measuring treatment efficacy for LIDs. Therefore, several secondary objectives were utilized to assess efficacy including the Unified Dyskinesia Rating Scale (UDysRS).
Efficacy was measured with the Unified Dyskinesia Rating Scale (UDysRS), a semi-quantitative assessment, FDA-validated instrument to assess […] dyskinesia in PD. […] Dosing was begun at 1 mg every 6 hours to a final dose of 24 mg per day. Patients who tolerated a total daily dose of at least 16 mg per day continued in the study.
LIDs were assessed by the UDysRS, the main measure of LIDs (Table 12). […] The study was conducted in accordance with the Declaration of Helsinki and Good Clinical Practice Guidelines. All sites received approval from an institutional review board and written informed consent was obtained from each patient prior to participation.
The efficacy variables for LIDs were the mean change from baseline to week 10 in the UDysRS total score; UDysRS sub-scores (Table 12). An analysis of covariance (ANCOVA) combined features of regression and analysis of variance (ANOVA). In addition to the descriptive summary of each variable from baseline to endpoint, Least Square (LS) means standard errors and 95% Confidence intervals (CI) of each group, and the difference of LS means between the 2 treatment groups and its 95% CI are presented. A similar analysis was applied to comparisons between UPDRS Part II, UPDRS Part III.

[2] = test system: subjects with idiopathic PD with LIDs; remark: listed apart in the source
Text: (§2) This post hoc analysis was inclusive of patients having baseline scores of […] for each of UPDRS Part II Question 13, Part II Question 14, and Part III Item 30.
(§3) The original UPDRS scale was used. […] In the UPDRS Part II, Question 13 is on Falling unrelated to Freezing. […] In Part II, Question 14 is on Freezing when Walking. This is a 5-point item and has two variables freezing and falls. […] Questions 13 and 14 were compared separately (Table 11).
For falls (UPDRS Part II, Question 13), a 5-point scale was used: 0: No falls to 4: falls more than once per day. For FOG and falls related to FOG (Question 14), a 5-point scale was used: 0: No FOG to 3 or 4: frequent falls from FOG. […] Analysis utilized Fisher's exact 2-tailed test. Improvement or worsening over baseline was calculated from the last treatment visit (Table 11).
Question 14—Freezing of Walking • 0=None; • 1=Rare freezing when walking, may have start hesitation; • 2=Occasional freezing when walking; • 3=Frequent freezing, occasionally falls from freezing; • 4=Frequent falls from freezing.
For the purposes of this alternative post hoc analysis, only patients having a screening or baseline score of 2 or more, i.e., occasional freezing when walking or occasional falls, less than once per day, were considered to have experienced episodes of freezing and/or falling. Additionally, scores of patients with a screening or baseline score of 1 were set to 0, i.e., no freezing when walking or no falls. All patients were included in the analysis regardless of their status during the study, with the last observation carried forward.

[3] = test system: subjects with idiopathic PD with LIDs; remark: listed apart in the source
Text: as §2, §3
This post hoc analysis was inclusive of patients having screening and/or baseline scores of greater than 0 for each of UPDRS Part II Question 13, Part II Question 14, and Part III Item 30.

[4] = oral capsules
[5] = test system: subjects with idiopathic PD with LIDs; remark: listed apart in the source
Experimental: as §1

[6] = baseline to week 10, of 30 patients
[7] = baseline to week 10, of 30 patients, negative = improvement

In the case of `CN1CCCC1c1cccnc1.O=C(O)C(O)C(O)C(=O)O` (centres unmarked) [NP002, Nicotine Bitartrate], the “UDysRS Evaluation of Dyskinesias on Ambulation, Difference LS Means” value ([1]; NP002 vs placebo, p 0.011) is reported as −3.7 +/− 1.9, the “UDysRS Evaluation of Dyskinesias on 7 Body Parts, Difference LS Means” value ([1]; NP002 vs placebo, p 0.062) is reported as −2.8 +/− 2.6 and the “Total Score UDysRS, Difference LS Means” value ([1]; NP002 vs placebo, p 0.092) is reported as −6.7 +/− 4.1. For the same molecule, the “UDysRS Evaluation of Dyskinesias on Dressing, Difference LS Means” value ([1]; NP002 vs placebo, p 0.139) was −2.1 +/− 1.4, the “UDysRS Evaluation of Dyskinesias on Drinking, Difference LS Means” value ([1]; NP002 vs placebo, p 0.171) was −2.4 +/− 1.7 and the “UDysRS Evaluation of Dyskinesias on Communication, Difference LS Means” value ([1]; NP002 vs placebo, p 0.189) was −1.9 +/− 1.4. The “UDysRS total score (primary outcome of dyskinesia) vs placebo” value ([1]; Week 10) was “statistical trend towards improvement”, the “reduction (improvement) in UDysRS ambulation subtest” value ([1]; baseline to week 10, p=0.011 vs placebo) was 46% and 46.3% and the “reduction in LIDs on the Total UDysRS” value ([1]; baseline to week 10, p=0.09 vs placebo) was 29%. The “Total Score UDysRS, Baseline” value ([1]; before treatment, n=35) was 51.7 +/− 16.9, the “UDysRS Evaluation of Dyskinesias on 7 Body Parts, Baseline” value ([1]; before treatment, n=35) was 13.5 +/− 5.4 and the “UDysRS Evaluation of Dyskinesias on Ambulation, Baseline” value ([1]; before treatment, n=35) was 9.5 +/− 6.0. The “UDysRS Evaluation of Dyskinesias on Communication, Baseline” value ([1]; before treatment, n=35) was 10.5 +/− 4.8, the “UDysRS Evaluation of Dyskinesias on Dressing, Baseline” value ([1]; before treatment, n=35) was 11.3 +/− 6.2 and the “UDysRS Evaluation of Dyskinesias on Drinking, Baseline” value ([1]; before treatment, n=35) was 9.1 +/− 5.6. For the same molecule, the “physician reported outcomes per UDysRS Part III vs placebo” value ([1]; dyskinesia impact on ambulation, p=0.011) was “significant improvement”, the “Total Score UDysRS, Week 10” value ([1]; n=27) was 36.4 +/− 16.1 and the “UDysRS Evaluation of Dyskinesias on Ambulation, Week 10” value ([1]; n=27) was 5.1 +/− 5.3. The “UDysRS Evaluation of Dyskinesias on Communication, Week 10” value ([1]; n=27) was 7.0 +/− 5.0, the “UDysRS Evaluation of Dyskinesias on Dressing, Week 10” value ([1]; n=27) was 6.9 +/−5.5 and the “UDysRS Evaluation of Dyskinesias on Drinking, Week 10” value ([1]; n=27) was 5.3 +/− 5.0. For the same molecule, the “improvement in freezing vs placebo at week 10” value ([2]; Question 14 score of 2 or greater at screening or baseline, Cochran-Mantel-Haenszel p=0.0476) was “statistically significant improvement in freezing”, the “patients with either a reduction or absence of FOG” value ([2]; active phase of the study) was about 73% and the “FOG (Question 14): patients with No Change” value [2, 6] was 17. The “FOG (Question 14): patients with change +1” value [2, 6] was 1, the “FOG (Question 14): patients with change +2” value [2, 6] was 0 and the “FOG (Question 14): patients with change +3” value [2, 6] was 0. For the same molecule, the “FOG (Question 14): patients with change −1” value [2, 6] was 10, the “FOG (Question 14): patients with change −2” value [2, 6] was 2 and the “FOG (Question 14): patients with change −3” value [2, 7] was 0. For the same molecule, the “patients with no FOG during the study” value ([2]; number of 30 patients) was 10, the “patients with a reduction in FOG” value ([2]; of 30 patients, p=0.004 vs placebo) was 40% and the “Pull Test (Item 30): patients with No Change” value [3, 6] was 19. For the same molecule, the “Pull Test (Item 30): patients with change +1” value [3, 6] was 1, the “Pull Test (Item 30): patients with change +2” value [3, 6] was 0 and the “Pull Test (Item 30): patients with change +3” value [3, 6] was 0. For the same molecule, the “Pull Test (Item 30): patients with change −1” value [3, 6] was 5, the “Pull Test (Item 30): patients with change −2” value [3, 6] was 5 and the “Pull Test (Item 30): patients with change −3” value [3, 7] was 0. For the same molecule, the “patients with improvement in postural stability (pull test)” value ([3]; patients with screening and/or baseline score >0, p=0.054 vs placebo) was 9 of 24, the “time until plasma concentration of nicotine returns close to baseline” value [4] was “approximately 6 hours” and the “PGI-C responders (score of 1, 2, or 3)” value ([5]; Visit 4 (Week 10), p=0.0048 vs placebo) was 21 (77.8%). The “LF-ADL responders (>25% reduction from baseline), vs placebo” value ([5]; Visit 4 (Week 10), p=0.0453) was “statistically significant difference between treatment groups” and the “patient- and physician-rated assessments of efficacy vs placebo” value ([5]; in vivo) was “superior to placebo on ALL patient- and physician-rated assessments of efficacy”.
